Source: PubChem BioAssay (NCI)
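Tested at 5 concentrations; 48 h exposure; 96-well plates; endpoints linearly interpolated, else capped at highest concentration. TGI is the concentration that stops growth completely.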

Key:
Assay in all cases: inhibition of tumour cell growth, NCI panel, 48 h
UACC-257 melanoma = tested on: UACC-257 melanoma
HT29 colon = tested on: HT29 colon
DMS 273 small cell lung = tested on: DMS 273 small cell lung
RPMI-8226 leukemia = tested on: RPMI-8226 leukemia
U251 CNS = tested on: U251 CNS
SN12C renal = tested on: SN12C renal
COLO 205 colon = tested on: COLO 205 colon
OVCAR-4 ovarian = tested on: OVCAR-4 ovarian
NCI-H460 lung = tested on: NCI-H460 lung
IGROV1 ovarian = tested on: IGROV1 ovarian
HL-60(TB) leukemia = tested on: HL-60(TB) leukemia
HOP-92 NSCLC = tested on: HOP-92 NSCLC
HCC-2998 colon = tested on: HCC-2998 colon
DMS 114 small cell lung = tested on: DMS 114 small cell lung
CCRF-CEM leukemia = tested on: CCRF-CEM leukemia
SNB-19 CNS = tested on: SNB-19 CNS
OVCAR-8 ovarian = tested on: OVCAR-8 ovarian
SNB-75 CNS = tested on: SNB-75 CNS
KM20L2 colon = tested on: KM20L2 colon
SK-MEL-28 melanoma = tested on: SK-MEL-28 melanoma
SK-MEL-5 melanoma = tested on: SK-MEL-5 melanoma
LOX IMVI melanoma = tested on: LOX IMVI melanoma
K-562 leukemia = tested on: K-562 leukemia
SF-539 CNS = tested on: SF-539 CNS
RXF 393 renal = tested on: RXF 393 renal
NCI-H522 lung = tested on: NCI-H522 lung
TK-10 renal = tested on: TK-10 renal
RXF-631 renal = tested on: RXF-631 renal
MALME-3M melanoma = tested on: MALME-3M melanoma
SK-OV-3 ovarian = tested on: SK-OV-3 ovarian
M14 melanoma = tested on: M14 melanoma
KM12 colon = tested on: KM12 colon
M19-MEL melanoma = tested on: M19-MEL melanoma
ACHN renal = tested on: ACHN renal
SF-295 CNS = tested on: SF-295 CNS
HOP-18 NSCLC = tested on: HOP-18 NSCLC
XF 498 CNS = tested on: XF 498 CNS
SF-268 CNS = tested on: SF-268 CNS
NCI-H226 lung = tested on: NCI-H226 lung
EKVX NSCLC = tested on: EKVX NSCLC
UO-31 renal = tested on: UO-31 renal
HCT-15 colon = tested on: HCT-15 colon
A498 renal = tested on: A498 renal
SK-MEL-2 melanoma = tested on: SK-MEL-2 melanoma
UACC-62 melanoma = tested on: UACC-62 melanoma
HOP-62 NSCLC = tested on: HOP-62 NSCLC
NCI-H23 lung = tested on: NCI-H23 lung
SW-620 colon = tested on: SW-620 colon
OVCAR-3 ovarian = tested on: OVCAR-3 ovarian
HCT-116 colon = tested on: HCT-116 colon
A549 NSCLC = tested on: A549 NSCLC
SNB-78 CNS = tested on: SNB-78 CNS
MOLT-4 leukemia = tested on: MOLT-4 leukemia
786-0 renal = tested on: 786-0 renal
OVCAR-5 ovarian = tested on: OVCAR-5 ovarian
CAKI-1 renal = tested on: CAKI-1 renal
DLD-1 colon = tested on: DLD-1 colon
LXFL 529 NSCLC = tested on: LXFL 529 NSCLC

Measured: TGI

C=C(C)CCN[Si](c1ccccc1)(c1ccccc1)C(C)(C)C
49.2 µM: SNB-19 CNS
41.5 µM: RXF-631 renal
31.9 µM: UACC-62 melanoma
79 µM: SNB-78 CNS
37.6 µM: DMS 273 small cell lung
33.4 µM: HOP-18 NSCLC
63.2 µM: K-562 leukemia
54.4 µM: EKVX NSCLC
36.9 µM: SK-MEL-5 melanoma
35.3 µM: KM20L2 colon
34.4 µM: M14 melanoma
36.4 µM: SF-295 CNS
48.1 µM: HCT-15 colon
98 µM: SF-268 CNS
32 µM: OVCAR-3 ovarian
32.4 µM: RXF 393 renal
40.9 µM: XF 498 CNS
38 µM: M19-MEL melanoma
30 µM: U251 CNS
34.2 µM: HOP-92 NSCLC
52.6 µM: MOLT-4 leukemia
36 µM: OVCAR-8 ovarian
68.3 µM: TK-10 renal
44.5 µM: HL-60(TB) leukemia
62.2 µM: RPMI-8226 leukemia
25.5 µM: NCI-H226 lung
33.5 µM: 786-0 renal
33.3 µM: COLO 205 colon
44.3 µM: NCI-H522 lung
29.2 µM: SK-MEL-2 melanoma
66.4 µM: CCRF-CEM leukemia
45.3 µM: NCI-H23 lung
43.3 µM: HCC-2998 colon
26.9 µM: UO-31 renal
42.7 µM: SK-MEL-28 melanoma
82.2 µM: SNB-75 CNS
31.4 µM: HOP-62 NSCLC
51.3 µM: DMS 114 small cell lung
69 µM: SK-OV-3 ovarian
36.7 µM: MALME-3M melanoma
31.7 µM: LOX IMVI melanoma
36.3 µM: KM12 colon
27.7 µM: HCT-116 colon
44.4 µM: OVCAR-4 ovarian
> 100 µM: NCI-H460 lung | ACHN renal | A498 renal | SW-620 colon | A549 NSCLC
30.2 µM: HT29 colon
32.7 µM: SN12C renal
29.1 µM: UACC-257 melanoma | SF-539 CNS
72 µM: IGROV1 ovarian

O=C(O)CNS(=O)(=O)c1ccc(NC(=O)c2ccc([N+](=O)[O-])cc2)cc1
not listed: DMS 114 small cell lung | HOP-62 NSCLC | HCT-116 colon | SNB-78 CNS
> 100 µM: all other assays above

CCOC(=O)C(=O)Nc1ccccc1CC
not listed: DMS 273 small cell lung | COLO 205 colon | SNB-75 CNS | KM20L2 colon | HCT-15 colon | A498 renal | SNB-78 CNS
> 100 µM: all other assays above
